This note sets out measurements from patent publication US20200261485A1, “COMPOSITIONS COMPRISING 3'-O-GLUCURONIDE EPICATECHIN AND METHODS OF MAKING AND USING SUCH COMPOSITIONS” (NESTEC S.A., priority 2015, published 2020).

“Also recorded” adds a separate entry of the source.

Assay [1] relates to endothelial nitric oxide synthase. Kind of assay: Phosphorylation of endothelial nitric oxide synthase (western blot) in isolated aortic rat rings. It is filed as cell-based. Also on record: dose or concentration left out as unconfirmed. The following applies: isolated Wistar rat aortic rings, 1 h incubation, FIG. 12. As to the method: Furthermore, comparative experiments were conducted on the expression of endothelial nitric oxide synthase in isolated aortic rat rings.
Thoracic aortas were obtained from male adults Wistar rats after euthanasia. Each aorta was carefully dissected and harvested cleaned of excess tissue and cut into three equal segments, approximately 7 mm long. All aortic rings were pre-incubated for 30 min in Krebs solution (20 mM Hepes buffer, pH 7.4, containing 119 mM NaCl, 4.7 mM KCl, 1 mM MgSO4, 0.4 mM NaH2PO4, 0.15 mM Na2HPO4, 5 mM NaHCO3, 1.25 mM CaCl2, 5.5 mM glucose) aerated with 95% O2 and 5% CO2 at 37° C. and then incubated with vehicle (DMSO 1%) or the different metabolites for 1 h. Metabolites were first dissolved in DMSO 1% and tested in a final concentration […]. At the end of the incubation period aortic rings were frozen at −70° C. until the homogenate preparation. Homogenates for western blot and western blot determinations were carried out by the regular procedures and phosphorylation level of endothelial nitric oxide synthase was evaluated.
Background: A western blot detects proteins with antibodies after separation by electrophoresis.

Assay [2] concerns the target T1, h-TRPA1 (Homo sapiens, UniProt O75762).
T1 construct: expressed in transfected cells; host or cells: CHO cells
Description: Calcium imaging of activation of CHO cells expressing h-TRPA1. The following applies: for Activity vs hTRPA1: CHO cells expressing h-TRPA1; for TRPA1 agonism (result in words): activation of CHO cells expressing h-TRPA1, FIGS. 4, 6, 7. The format is cell-based. As to the method:
Specifically, the activation of CHO cells expressing h-TRPA1 was tested according to the calcium imaging method described in Riera et al. (Riera, C. E., Vogel, H., Simon, S. A., Damak, S., & le Coutre, J. Sensory attributes of complex tasting divalent salts are mediated by TRPM5 and TRPV1 channels. J. Neurosci. 29, 2654-2662 (2009)).

The mark [3] stands for this setting: concentration (max) tested 100 mM.
Setting [4] is: concentration (max) tested 3 mM.

Usually EC50 stands for the concentration giving half of the maximal effect.

T1 sequence (O75762 whole entry): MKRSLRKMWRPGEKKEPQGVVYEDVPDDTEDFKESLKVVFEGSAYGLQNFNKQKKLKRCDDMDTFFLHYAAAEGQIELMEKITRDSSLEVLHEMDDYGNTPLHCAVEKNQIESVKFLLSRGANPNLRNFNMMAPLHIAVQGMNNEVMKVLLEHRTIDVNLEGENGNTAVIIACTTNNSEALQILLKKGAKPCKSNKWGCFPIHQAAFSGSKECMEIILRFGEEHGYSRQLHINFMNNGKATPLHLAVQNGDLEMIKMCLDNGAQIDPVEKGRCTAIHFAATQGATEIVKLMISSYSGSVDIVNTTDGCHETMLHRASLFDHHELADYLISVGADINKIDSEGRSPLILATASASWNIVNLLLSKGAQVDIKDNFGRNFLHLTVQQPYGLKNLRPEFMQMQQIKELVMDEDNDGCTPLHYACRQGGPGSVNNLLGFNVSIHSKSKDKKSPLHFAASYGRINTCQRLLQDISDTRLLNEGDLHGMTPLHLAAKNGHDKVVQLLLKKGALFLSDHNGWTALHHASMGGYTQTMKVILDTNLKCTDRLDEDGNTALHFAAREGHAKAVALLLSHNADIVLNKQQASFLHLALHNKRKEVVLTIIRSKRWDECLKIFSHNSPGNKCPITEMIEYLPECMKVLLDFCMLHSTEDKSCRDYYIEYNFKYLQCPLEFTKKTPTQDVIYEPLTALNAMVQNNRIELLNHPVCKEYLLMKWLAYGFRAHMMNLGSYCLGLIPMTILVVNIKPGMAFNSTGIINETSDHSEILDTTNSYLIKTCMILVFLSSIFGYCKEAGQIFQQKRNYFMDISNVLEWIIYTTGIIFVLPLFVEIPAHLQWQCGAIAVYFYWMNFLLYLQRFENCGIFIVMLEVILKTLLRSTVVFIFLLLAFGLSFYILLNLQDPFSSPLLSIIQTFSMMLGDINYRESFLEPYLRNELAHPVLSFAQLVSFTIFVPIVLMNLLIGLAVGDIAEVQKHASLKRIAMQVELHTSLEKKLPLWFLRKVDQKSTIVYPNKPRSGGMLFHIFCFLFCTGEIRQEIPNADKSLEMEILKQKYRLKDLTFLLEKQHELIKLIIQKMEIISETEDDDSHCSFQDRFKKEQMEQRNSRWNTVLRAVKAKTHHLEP

With `O=C(O)[C@H]1O[C@@H](Oc2cc([C@H]3Oc4cc(O)cc(O)c4C[C@H]3O)ccc2O)[C@H](O)[C@@H](O)[C@@H]1O` [3′-O-glucuronide epicatechin], the “eNOS phosphorylation relative to control and chemically similar epicatechins” value in assay [1] was “increased eNOS phosphorylation”. Further, in assay [2] (concentration (max) tested 133 mM), the “Activity vs hTRPA1” value is listed as “Active”. The “TRPA1 agonism (result in words)” value in assay [2] is recorded as “is a TRPA1 agonist; also recorded: agonist of the cation channel of TRPA1”. Moreover, the EC50 in assay [2] (activation of hTRPA1 in CHO cells) is approximately 80 mM. In assay [2] (different concentrations, dose-response curve, FIGS. 10 and 11), the “Concentration dependence of activation of CHO cells expressing h-TRPA1” value is listed as “activation occurs in a concentration-dependent manner”. As to `COc1cc([C@H]2Oc3cc(O)cc(O)c3C[C@H]2O)ccc1O` [3′-O-methyl epicatechin], in assay [2] (setting [3]), the “Activity vs hTRPA1” value was “Inactive”. Further, the “TRPA1 agonism (result in words)” value in assay [2] is recorded as “is not a TRPA1 agonist; also recorded: not TRPA1 agonists”; in assay [2] (listed as 3′-methyl epicatechin), “not TRPA1 agonists”.

Turning to `O=S(=O)(O)Oc1cc([C@H]2Oc3cc(O)cc(O)c3C[C@H]2O)ccc1O` [3′-O-sulfate epicatechin], the “Activity vs hTRPA1” value in assay [2] (setting [3]) was “Inactive”. Also, the “TRPA1 agonism (result in words)” value in assay [2] is on record as “is not a TRPA1 agonist; also recorded: not TRPA1 agonists”. Regarding `COc1cc(C2Oc3cc(OS(=O)(=O)O)cc(O)c3CC2O)ccc1O` (stereo not drawn) [3′-methyl-7-sulfate-EC], the “Activity vs hTRPA1” value in assay [2] (setting [3]) is on record as “Inactive”. Consider `O=C(O)[C@H]1O[C@@H](Oc2ccc([C@H]3Oc4cc(O)cc(O)c4C[C@H]3O)cc2O)[C@H](O)[C@@H](O)[C@@H]1O` [4′-O-glucuronide epicatechin], for which the “eNOS phosphorylation relative to control and chemically similar epicatechins” value in assay [1] is on record as “increased eNOS phosphorylation”.

For the compound `COc1ccc(C2Oc3cc(O)cc(O)c3CC2O)cc1O` (stereo not drawn) [4′-methyl-EC], the “Activity vs hTRPA1” value in assay [2] (setting [3]) is “Inactive”. Regarding `O=S(=O)(O)Oc1ccc(C2Oc3cc(O)cc(O)c3CC2O)cc1O` (stereo not drawn) [4′-sulfate-EC], the “Activity vs hTRPA1” value in assay [2] (setting [3]) was “Inactive”. As for `CC(C)c1ccc(NC(=O)Cn2cnc3c2c(=O)n(C)c(=O)n3C)cc1` [HC030031], the “Blockage of the activation of hTRPA1 by 3′-O-glucuronide epicatechin” value in assay [2] (selective hTRPA1 antagonist added, FIG. 9) is recorded as “blocked the activation of hTRPA1”.

For the compound `COc1ccc(C2CC(=O)c3c(O)cc(O)cc3O2)cc1O[C@@H]1O[C@H](C(=O)O)[C@@H](O)[C@H](O)[C@H]1O` (stereo partly drawn) [Hesperetin-3-O-Glucuronide], the “Activity vs hTRPA1” value in assay [2] (setting [4]) is reported as “Inactive”. For the compound Hesperetin-4-O-Glucuronide, in assay [2] (setting [4]), the “Activity vs hTRPA1” value is “Inactive”. As for Hesperetin-7-3-O-Glucuronide, the “Activity vs hTRPA1” value in assay [2] (setting [4]) is reported as “Inactive”.
